We go through 1 cell line from the supplement of paper PMC10307832.

Common to all, as to assay: relative viability (nuclei count vs DMSO), 5 days (fraction); higher = more cells survive
Compound in the test “Tanzisertib + Phenformin”: O[C@H]1CC[C@H](Nc2ncc3nc(Nc4c(F)cc(F)cc4F)n([C@H]4CCOC4)c3n2)CC1 [Tanzisertib] + N=C(N)NC(=N)NCCc1ccccc1 [Phenformin] (partner 250 µM)
The method, boiled down: (§1)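 Relative viability equals treated-well nuclei counts divided by vehicle-well nuclei counts. Counts came from 4× images of lung cancer cell lines grown in 1536-well plates for 5 days after pin-tool dosing on the day after seeding. Dosing used one drug alone or a fixed anchor-drug dose plus five library-drug doses (not always all listed) in √10 steps, and values are medians of duplicate plates.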

Compound in the test “Tanzisertib + OSI-027”: O[C@H]1CC[C@H](Nc2ncc3nc(Nc4c(F)cc(F)cc4F)n([C@H]4CCOC4)c3n2)CC1 [Tanzisertib] + COc1cccc2cc(-c3nc([C@H]4CC[C@H](C(=O)O)CC4)n4ncnc(N)c34)[nH]c12 [OSI-027] (partner 0.5 µM)
A digest of the protocol: as §1

Compound in test [1]: C1CNCCC1C2=CC(=NN2)C3=CC=NC=C3 + C[C@]1(O)C[C@@H](c2nc(-c3ccc4ccc(-c5ccccc5)nc4c3)c3c(N)nccn32)C1 [Linsitinib] (partner 1 µM)
A digest of the protocol:
as §1

Compound in test [2]: C[C@@H](N)c1ccc(C(=O)Nc2ccnc3[nH]ccc23)cc1 + CS(=O)(=O)N1CCN(Cc2cc3nc(-c4cccc5[nH]ncc45)nc(N4CCOCC4)c3s2)CC1 [Pictilisib] (partner 1 µM)
The method, boiled down: as §1

UMC-11: the relative viability with Tanzisertib + Phenformin (first compound 0.08 µM) worked out at 0.339; with Tanzisertib + Phenformin (first compound 0.253 µM), 0.35; with Tanzisertib + Phenformin (first compound 0.8 µM) it was 0.342; in the test with Tanzisertib + Phenformin (first compound 2.53 µM), 0.351; with Tanzisertib + Phenformin (first compound 8 µM) it was 0.37; with Tanzisertib + OSI-027 (first compound 0.08 µM), 0.532. Moreover, the relative viability in the test with Tanzisertib + OSI-027 (first compound 0.253 µM) came out at 0.391; with Tanzisertib + OSI-027 (first compound 0.8 µM) it was 0.537; with Tanzisertib + OSI-027 (first compound 2.53 µM) it was 0.439; in the test with Tanzisertib + OSI-027 (first compound 8 µM), 0.477; in test [1] (first compound 0.08 µM), 0.987; in test [1] (first compound 0.8 µM), 1.08. For the same cell line, the relative viability came out at 1.17 in test [1] (first compound 2.53 µM); 0.982 in test [1] (first compound 8 µM); 0.715 in test [2] (first compound 0.04 µM); 0.759 in test [2] (first compound 0.1265 µM); 0.93 in test [2] (first compound 0.4 µM); 0.177 in test [2] (first compound 1.265 µM). In test [2] (first compound 4 µM), the relative viability was 0.767.
